Measured values reported in ChEMBL document CHEMBL2396588, “Synthesis, biological evaluation and molecular modeling of substituted 2-aminobenzimidazoles as novel inhibitors of acetylcholinesterase and butyrylcholinesterase” (Bioorg Med Chem, 2013).

How the values were obtained:
PC-12 = experiment: Cytotoxicity against rat PC12 cells assessed as cell viability at 100 uM after 48 hrs by MTT assay; format: cell-based; settings: pc-12, 48 h
HepG2 = experiment: (§1) Cytotoxicity against human HepG2 cells assessed as cell viability at 100 uM after 48 hrs by MTT assay; format: cell-based; settings: hepg2, 48 h, 100 µM
Acetylcholinesterase = Acetylcholinesterase (Homo sapiens, UniProt P22303); experiment: Inhibition of human AchE using acetylthiocholine iodide as substrate incubated for 20 mins prior to substrate addition measured for 1 hr by Ellman's method
Cholinesterase = Cholinesterase (Homo sapiens, UniProt P06276); experiment: Inhibition of human BuChE using butyrylthiocholine iodide as substrate incubated for 20 mins prior to substrate addition measured for 1 hr by Ellman's method
Homo sapiens = species on record: Homo sapiens; experiment: Selectivity ratio of IC50 for human AChE to IC50 for human BuChE
[1] = as §1; format: cell-based; settings: HepG2 cells, read-out: Activity

Sequence of Cholinesterase (P06276 whole entry): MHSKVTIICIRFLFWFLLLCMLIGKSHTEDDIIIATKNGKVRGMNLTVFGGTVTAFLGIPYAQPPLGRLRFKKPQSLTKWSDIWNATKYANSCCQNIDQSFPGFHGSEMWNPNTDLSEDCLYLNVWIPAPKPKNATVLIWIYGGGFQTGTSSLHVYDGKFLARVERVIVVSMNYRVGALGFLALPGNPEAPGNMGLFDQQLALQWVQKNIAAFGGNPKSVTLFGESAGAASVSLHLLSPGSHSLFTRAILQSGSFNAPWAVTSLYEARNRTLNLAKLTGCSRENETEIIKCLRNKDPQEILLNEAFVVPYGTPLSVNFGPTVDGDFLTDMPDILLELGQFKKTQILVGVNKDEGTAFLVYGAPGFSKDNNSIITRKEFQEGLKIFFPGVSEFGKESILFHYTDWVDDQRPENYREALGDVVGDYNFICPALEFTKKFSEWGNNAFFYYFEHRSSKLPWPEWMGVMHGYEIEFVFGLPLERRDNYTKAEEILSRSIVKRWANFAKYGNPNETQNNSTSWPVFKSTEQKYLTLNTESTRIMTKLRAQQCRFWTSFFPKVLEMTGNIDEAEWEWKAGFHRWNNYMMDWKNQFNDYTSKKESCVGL
Sequence of Acetylcholinesterase (P22303 whole entry): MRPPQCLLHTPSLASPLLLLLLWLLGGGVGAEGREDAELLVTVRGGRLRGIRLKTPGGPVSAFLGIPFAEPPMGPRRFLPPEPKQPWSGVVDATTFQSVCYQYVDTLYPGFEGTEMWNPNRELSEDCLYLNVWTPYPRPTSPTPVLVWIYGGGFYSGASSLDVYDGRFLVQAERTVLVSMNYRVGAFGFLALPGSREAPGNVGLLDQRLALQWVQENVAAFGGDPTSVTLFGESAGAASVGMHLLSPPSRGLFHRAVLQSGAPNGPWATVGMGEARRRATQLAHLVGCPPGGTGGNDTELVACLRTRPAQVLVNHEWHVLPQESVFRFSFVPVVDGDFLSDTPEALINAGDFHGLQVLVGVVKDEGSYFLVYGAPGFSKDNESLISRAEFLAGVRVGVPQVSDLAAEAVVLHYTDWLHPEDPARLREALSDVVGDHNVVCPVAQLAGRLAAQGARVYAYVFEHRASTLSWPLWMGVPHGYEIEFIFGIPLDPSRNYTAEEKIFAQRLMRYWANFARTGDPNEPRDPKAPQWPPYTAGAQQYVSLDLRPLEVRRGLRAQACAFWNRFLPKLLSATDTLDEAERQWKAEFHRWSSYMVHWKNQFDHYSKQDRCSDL

For `CC1CCCCN1c1nc2ccccc2[nH]1` (configuration not stated), the Activity (PC-12) was “Non-toxic”, the Activity (HepG2) was “Non-toxic” and the IC50 (Acetylcholinesterase) was 88.9 µM. It also gave an IC50 (Cholinesterase) of 2.03 µM and a Ratio IC50 (Homo sapiens) of 43.8.
In the case of `CCCCN(C)c1nc2ccccc2n1C`, the Activity (PC-12) is reported as “Non-toxic”, the Activity (HepG2) is reported as “Non-toxic” and the IC50 (Acetylcholinesterase) is reported as over 100 µM. The IC50 (Cholinesterase) was over 100 µM.
With `CCCCN(C)c1nc2ccccc2[nH]1` the Activity (PC-12) was “Non-toxic”, the Activity (HepG2) was “Non-toxic” and the IC50 (Acetylcholinesterase) was over 100 µM. For the same compound, the IC50 (Cholinesterase) was over 100 µM.
With `CCN(CC)CCCNc1nc2ccccc2[nH]1` the Activity (PC-12) was “Non-toxic”, the Activity (HepG2) was “Non-toxic” and the IC50 (Acetylcholinesterase) was over 100 µM. The IC50 (Cholinesterase) was over 100 µM.
In the case of `CN(C)CCCN(c1nc2ccccc2[nH]1)c1nc2ccccc2[nH]1`, the Activity (PC-12) is reported as “Non-toxic”, the Activity (HepG2) is reported as “Non-toxic” and the IC50 (Acetylcholinesterase) is reported as 59.7 µM. For the same compound, the IC50 (Cholinesterase) was 2.26 µM and the Ratio IC50 (Homo sapiens) was 26.4.
With `c1ccc2[nH]c(NC34CC5CC(CC(C5)C3)C4)nc2c1` the Activity (PC-12) was “Non-toxic”, the Activity (HepG2) was “Non-toxic” and the IC50 (Acetylcholinesterase) was over 100 µM. It also gave an IC50 (Cholinesterase) of over 100 µM.
With `c1ccc2c(c1)CCCN2c1nc2ccccc2[nH]1` the Activity (PC-12) was “Non-toxic”, the Activity (HepG2) was “Non-toxic” and the IC50 (Acetylcholinesterase) was over 100 µM. It also gave an IC50 (Cholinesterase) of over 100 µM.
For `c1ccc(CCCNc2nc3ccccc3[nH]2)cc1`, the Activity (PC-12) was “Non-toxic”, the Activity (HepG2) was “Non-toxic” and the IC50 (Acetylcholinesterase) was over 100 µM. The IC50 (Cholinesterase) was over 100 µM.
In the case of `c1ccc(Nc2nc3ccccc3[nH]2)nc1`, the Activity (PC-12) is reported as “Non-toxic”, the Activity (HepG2) is reported as “Non-toxic” and the IC50 (Acetylcholinesterase) is reported as over 100 µM. For the same compound, the IC50 (Cholinesterase) was over 100 µM.
For `CC(C)(C)OC(=O)NCCNc1nc2ccccc2[nH]1`, the Activity (PC-12) was “Non-toxic”, the Activity (HepG2) was “Non-toxic” and the IC50 (Acetylcholinesterase) was over 100 µM. The IC50 (Cholinesterase) was 71.9 µM.
In the case of `CCCCNc1nc2ccccc2n1C`, the Activity (PC-12) is reported as “Non-toxic”, the Activity (HepG2) is reported as “Non-toxic” and the IC50 (Acetylcholinesterase) is reported as over 100 µM. The IC50 (Cholinesterase) was over 100 µM.
For `COCCNc1nc2ccccc2[nH]1`, the Activity (PC-12) was “Non-toxic”, the Activity (HepG2) was “Non-toxic” and the IC50 (Acetylcholinesterase) was over 100 µM. The IC50 (Cholinesterase) was over 100 µM.
For `NCCNc1nc2ccccc2[nH]1`, the Activity (PC-12) was “Non-toxic”, the Activity (HepG2) was “Non-toxic” and the IC50 (Acetylcholinesterase) was over 100 µM. For the same compound, the IC50 (Cholinesterase) was over 100 µM.
In the case of `CCCCNc1nc2ccccc2[nH]1`, the viability at 48 h, 100 µM [1] is reported as 85.2%, the IC50 (Acetylcholinesterase) is reported as over 100 µM and the IC50 (Cholinesterase) is reported as 61 µM.
In the case of `c1ccc2[nH]c(N3CCCCC3)nc2c1`, the Activity (PC-12) is reported as “Non-toxic”, the Activity (HepG2) is reported as “Non-toxic” and the IC50 (Acetylcholinesterase) is reported as 59.2 µM. The IC50 (Cholinesterase) was 1.57 µM and the Ratio IC50 (Homo sapiens) was 37.7.
